{"source": "ChEMBL document CHEMBL1126579", "about": "“6-Azasteroids: potent dual inhibitors of human type 1 and 2 steroid 5 alpha-reductase” (J Med Chem, 1993)", "key": {"[1]": {"target": "T1, 3-oxo-5-alpha-steroid 4-dehydrogenase 1 (Homo sapiens, UniProt P18405)", "T1 sequence (P18405 whole entry)": "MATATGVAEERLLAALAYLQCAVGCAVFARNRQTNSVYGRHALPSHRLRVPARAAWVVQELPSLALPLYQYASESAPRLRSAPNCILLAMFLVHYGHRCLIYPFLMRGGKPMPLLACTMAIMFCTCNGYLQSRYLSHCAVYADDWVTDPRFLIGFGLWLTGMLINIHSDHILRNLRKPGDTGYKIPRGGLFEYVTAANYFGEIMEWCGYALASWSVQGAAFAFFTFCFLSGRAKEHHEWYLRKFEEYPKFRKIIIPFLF", "assay": "Inhibition of recombinant human 5-alpha reductase-1 […] after pre-incubation for 10 minutes"}, "[2]": {"target": "T2, 3-oxo-5-alpha-steroid 4-dehydrogenase 2 (Homo sapiens, UniProt P31213)", "T2 sequence (P31213 whole entry)": "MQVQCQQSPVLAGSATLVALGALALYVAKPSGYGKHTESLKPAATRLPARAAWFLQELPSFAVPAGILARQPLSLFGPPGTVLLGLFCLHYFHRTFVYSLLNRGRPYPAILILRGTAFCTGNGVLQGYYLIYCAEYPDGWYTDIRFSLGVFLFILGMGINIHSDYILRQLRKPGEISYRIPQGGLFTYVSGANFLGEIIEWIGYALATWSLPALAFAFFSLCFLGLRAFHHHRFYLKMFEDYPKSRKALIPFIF", "assay": "Inhibition of recombinant human 5-alpha reductase-2 […] after pre-incubation for 10 minutes"}, "Rattus norvegicus": {"system": "Rattus norvegicus", "assay": "In vivo evaluation in chronic castrated rat to inhibit T-stimulated prostate growth expressed as percentage reduction", "format": "functional, Prostate gland", "parameters": "concentration or dose not given beside the values"}, "[3]": {"assay": "Bioavailability after oral administration in dog", "format": "ADME, organism-based, Canis lupus familiaris", "conditions": "in vivo"}, "[4]": {"assay": "Half-life in dog", "format": "ADME, organism-based, Canis lupus familiaris", "conditions": "in vivo"}}}
{"smiles": "CC(C)NC(=O)[C@H]1CCC2C3CNC4=CC(=O)CC[C@]4(C)C3CC[C@@]21C", "note": "(some centres undefined)", "values": [{"measurement": "Ki", "setting": "[1]", "result": 6000, "unit": "nM"}]}
{"smiles": "C[C@]12CCC(=O)C=C1NCC1C2CC[C@@]2(C)C1CC[C@@H]2C(=O)NCc1ccccc1", "note": "(some centres undefined)", "values": [{"measurement": "Ki", "setting": "[1]", "result": 360, "unit": "nM"}]}
{"smiles": "CCN(C)C(=O)[C@H]1CCC2C3CNC4=CC(=O)CC[C@]4(C)C3CC[C@@]21C", "note": "(some centres undefined)", "values": [{"measurement": "Ki", "setting": "[1]", "result": 720, "unit": "nM"}, {"measurement": "IC50", "setting": "[2]", "result": 2.8, "unit": "nM"}]}
{"smiles": "CC(C)N(C(=O)[C@H]1CCC2C3CNC4=CC(=O)CC[C@]4(C)C3CC[C@@]21C)C(C)C", "note": "(some centres undefined)", "values": [{"measurement": "Ki", "setting": "[1]", "result": 190, "unit": "nM"}, {"measurement": "IC50", "setting": "[2]", "result": 0.36, "unit": "nM"}]}
{"smiles": "C[C@]12CCC(=O)C=C1NCC1C2CC[C@@]2(C)C1CC[C@@H]2C(=O)NC12C[C@H]3C[C@@H](C1)C[C@@H](C2)C3", "note": "(some centres undefined)", "values": [{"measurement": "Reduction", "setting": "Rattus norvegicus", "result": 18, "unit": "%"}, {"measurement": "Ki", "setting": "[1]", "result": 11, "unit": "nM"}]}
{"smiles": "C[C@]12CCC(=O)C=C1NCC1C2CC[C@@]2(C)C1CC[C@@H]2C(=O)C1[C@H]2C[C@@H]3C[C@@H](C[C@H]1C3)C2", "note": "(some centres undefined)", "values": [{"measurement": "Reduction", "setting": "Rattus norvegicus", "result": 26, "unit": "%"}, {"measurement": "Ki", "setting": "[1]", "result": 6.9, "unit": "nM"}, {"measurement": "IC50", "setting": "[2]", "result": 0.04, "unit": "nM"}]}
{"smiles": "C[C@]12CCC(=O)C=C1NCC1C2CC[C@@]2(C)C1CC[C@@H]2C(=O)NC(c1ccccc1)c1ccccc1", "note": "(some centres undefined)", "values": [{"measurement": "bioavailability", "setting": "[3]", "result": 80, "unit": "%"}, {"measurement": "Reduction", "setting": "Rattus norvegicus", "result": 43, "unit": "%"}, {"measurement": "Ki", "setting": "[1]", "result": 30, "unit": "nM"}, {"measurement": "IC50", "setting": "[2]", "result": 0.09, "unit": "nM"}]}
{"smiles": "C[C@]12CCC(=O)C=C1NCC1C2CC[C@@]2(C)C1CC[C@@H]2C(=O)N1CCOCC1", "note": "(some centres undefined)", "values": [{"measurement": "Ki", "setting": "[1]", "result": 2200, "unit": "nM"}, {"measurement": "IC50", "setting": "[2]", "result": 7.1, "unit": "nM"}]}
{"smiles": "COC(=O)[C@H]1CCC2C3CNC4=CC(=O)CC[C@]4(C)C3CC[C@@]21C", "note": "(some centres undefined)", "values": [{"measurement": "Ki", "setting": "[1]", "result": 150, "unit": "nM"}]}
{"smiles": "C[C@]12CCC(=O)C=C1NCC1C2CC[C@@]2(C)C1CC[C@@H]2C(=O)NC(c1ccc(F)cc1)c1ccc(F)cc1", "note": "(some centres undefined)", "values": [{"measurement": "Reduction", "setting": "Rattus norvegicus", "result": 43, "unit": "%"}, {"measurement": "Ki", "setting": "[1]", "result": 20, "unit": "nM"}]}
{"smiles": "CON(C)C(=O)[C@H]1CCC2C3CNC4=CC(=O)CC[C@]4(C)C3CC[C@@]21C", "note": "(some centres undefined)", "values": [{"measurement": "Ki", "setting": "[1]", "result": 2300, "unit": "nM"}, {"measurement": "IC50", "setting": "[2]", "result": 2.4, "unit": "nM"}]}
{"smiles": "C[C@]12CCC(=O)C=C1NCC1C2CC[C@@]2(C)C1CC[C@@H]2C(=O)NC(c1ccccc1)(c1ccccc1)c1ccccc1", "note": "(some centres undefined)", "values": [{"measurement": "Reduction", "setting": "Rattus norvegicus", "result": 4, "unit": "%"}, {"measurement": "Ki", "setting": "[1]", "result": 8.2, "unit": "nM"}, {"measurement": "IC50", "setting": "[2]", "result": 0.09, "unit": "nM"}]}
{"smiles": "C[C@]12CCC(=O)C=C1NCC1C2CC[C@@]2(C)C1CC[C@@H]2C(=O)N1CCNCC1", "note": "(some centres undefined)", "values": [{"measurement": "Ki", "setting": "[1]", "result": 8600, "unit": "nM"}]}
{"smiles": "C[C@]12CCC(=O)C=C1NCC1C2CC[C@@]2(C)C1CC[C@@H]2C(=O)NN(c1ccccc1)c1ccccc1", "note": "(some centres undefined)", "values": [{"measurement": "Reduction", "setting": "Rattus norvegicus", "result": 38, "unit": "%"}, {"measurement": "Ki", "setting": "[1]", "result": 14, "unit": "nM"}, {"measurement": "IC50", "setting": "[2]", "result": 0.23, "unit": "nM"}]}
{"smiles": "C[C@]12CCC(=O)C=C1NCC1C2CC[C@@]2(C)C1CC[C@@H]2C(=O)NC(c1ccc(Cl)cc1)c1ccc(Cl)cc1", "note": "(some centres undefined)", "values": [{"measurement": "Reduction", "setting": "Rattus norvegicus", "result": 31, "unit": "%"}, {"measurement": "Ki", "setting": "[1]", "result": 20, "unit": "nM"}, {"measurement": "IC50", "setting": "[2]", "result": 0.12, "unit": "nM"}, {"measurement": "half-life", "setting": "[4]", "result": 12, "unit": "h"}]}
{"smiles": "CC(C)CC(=O)[C@H]1CCC2C3CNC4=CC(=O)CC[C@]4(C)C3CC[C@@]21C", "note": "(some centres undefined)", "values": [{"measurement": "Reduction", "setting": "Rattus norvegicus", "result": 18, "unit": "%"}, {"measurement": "Ki", "setting": "[1]", "result": 9, "unit": "nM"}, {"measurement": "IC50", "setting": "[2]", "result": 0.08, "unit": "nM"}]}
{"smiles": "C[C@]12CCC(=O)C=C1NCC1C2CC[C@@]2(C)C1CC[C@@H]2C(=O)N(Cc1ccccc1)Cc1ccccc1", "note": "(some centres undefined)", "values": [{"measurement": "Ki", "setting": "[1]", "result": 75, "unit": "nM"}]}
{"smiles": "C[C@]12CCC(=O)C=C1NCC1C2CC[C@@]2(C)C1CC[C@@H]2C(=O)N1CCSCC1", "note": "(some centres undefined)", "values": [{"measurement": "Ki", "setting": "[1]", "result": 570, "unit": "nM"}]}
{"smiles": "CC(C)(C)NC(=O)[C@H]1CCC2C3CNC4=CC(=O)CC[C@]4(C)C3CC[C@@]21C", "note": "(some centres undefined)", "values": [{"measurement": "Ki", "setting": "[1]", "result": 820, "unit": "nM"}]}
{"smiles": "CCN(CC)C(=O)[C@H]1CCC2C3CNC4=CC(=O)CC[C@]4(C)C3CC[C@@]21C", "note": "(some centres undefined)", "values": [{"measurement": "Ki", "setting": "[1]", "result": 750, "unit": "nM"}, {"measurement": "IC50", "setting": "[2]", "result": 1.5, "unit": "nM"}]}
{"smiles": "C[C@]12CCC(=O)C=C1NCC1C2CC[C@@]2(C)C1CC[C@@H]2C(=O)NC(C1CCCCC1)C1CCCCC1", "note": "(some centres undefined)", "values": [{"measurement": "Reduction", "setting": "Rattus norvegicus", "result": 14, "unit": "%"}, {"measurement": "Ki", "setting": "[1]", "result": 20, "unit": "nM"}, {"measurement": "IC50", "setting": "[2]", "result": 0.4, "unit": "nM"}]}
{"smiles": "CC(C)(C)NC(=O)[C@H]1CC[C@H]2[C@@H]3CC=C4C=C(C(=O)O)CC[C@]4(C)[C@H]3CC[C@]12C", "note": "[EPRISTERIDE]", "values": [{"measurement": "Ki", "setting": "[1]", "result": "> 5000", "unit": "nM"}, {"measurement": "IC50", "setting": "[2]", "result": 30, "unit": "nM"}]}
{"smiles": "CC(C)(C)NC(=O)[C@H]1CC[C@H]2[C@@H]3CC[C@H]4NC(=O)C=C[C@]4(C)[C@H]3CC[C@]12C", "note": "[FINASTERIDE]", "values": [{"measurement": "Reduction", "setting": "Rattus norvegicus", "result": 41, "unit": "%"}, {"measurement": "IC50", "setting": "[1]", "result": 150, "unit": "nM"}, {"measurement": "IC50", "setting": "[2]", "result": 0.18, "unit": "nM"}]}
